The text below walks through data of patent US12066439B2, “Methods for enhancing specificity and sensitivity of group a Streptococcus immunoassay” (Becton, Dickinson and Company, priority 2021, dated 2024).

Entries after “also recorded” stand apart in the source; their conditions may differ.

For assay [1], the system named is Rabbit polyclonal antibodies for Group A Strep. As to conditions: previous studies, US 2013/0196337; cited from earlier work.
Assay [2] has as its system anti-Strep A polyclonal antibodies. Description: Strep A lateral flow immunoassay (Veritor Strep A), false positive signal from porcine mucin samples. It counts as binding. As to conditions: for false positive signals from porcine mucin samples: agent added directly to the sample, 4x mucin standard (~2.5 mg/mL), FIGS. 5-6. The method, then: 2-N-butanoyl-D-glucosamide, or Bis-(2-(D-2-deoxy-glucosaminyl))-PEG3-amide were tested for their ability to inhibit or block the binding of the anti-Strep A polyclonal antibodies in the Strep A immunoassay (Veritor™ Strep A assay). Porcine mucin samples were used as a surrogate of human saliva sample, and were tested with an immunoassay test strip for specificity. Using an immunoassay device for detection of Strep A, the effect of 2-N-butanoyl-D-glucosamide, or Bis-(2-(D-2-deoxy-glucosaminyl))-PEG3-amide on the performance of Strep A assay was evaluated using 4× concentration of mucin standard (˜2.5 mg/mL) and Test Standard 1. […] Different concentrations of 2-N-butanoyl-D-glucosamide, or Bis-(2-(D-2-deoxy-glucosaminyl))-PEG3-amide in an immunoassay were evaluated for inhibition of Strep A false positive signals.
m-PEG4-glucosamine, m-PEG6-glucosamine, m-PEG10-glucosamine and m-PEG5000-glucosamine were tested for their ability to inhibit or block the binding of the anti-Strep A polyclonal antibodies in the Strep A immunoassay. […] Different concentrations of m-PEG4-glucosamine, m-PEG6-glucosamine, m-PEG10-glucosamine and m-PEG5000-glucosamine in an immunoassay were evaluated for inhibition of Strep A false positive signals.

Assay [3] has the same test system. Description: Strep A lateral flow immunoassay (Veritor Strep A), sensitivity with sample containing Strep A antigen. Format: binding. As to conditions: for sensitivity of the Strep A assay: agent mixed with sample containing Strep A antigen, FIG. 10. The method, then: FIGS. 1A-1C show the effect of N-propionyl-D-glucosamine on the sensitivity and false positivity of the Veritor™ Strep A assay when analyzing a test sample. The N-propionyl-D-glucosamine was added to the extraction reagent and mixed with porcine mucin, a surrogate of human mucin from saliva for specificity, or with Strep A extract for sensitivity.
2-N-butanoyl-D-glucosamide, or Bis-(2-(D-2-deoxy-glucosaminyl))-PEG3-amide were tested for their ability to inhibit or block the binding of the anti-Strep A polyclonal antibodies in the Strep A immunoassay (Veritor™ Strep A assay). Porcine mucin samples were used as a surrogate of human saliva sample, and were tested with an immunoassay test strip for specificity. Using an immunoassay device for detection of Strep A, the effect of 2-N-butanoyl-D-glucosamide, or Bis-(2-(D-2-deoxy-glucosaminyl))-PEG3-amide on the performance of Strep A assay was evaluated using 4× concentration of mucin standard (˜2.5 mg/mL) and Test Standard 1. Either 2-N-butanoyl-D-glucosamide, or Bis-(2-(D-2-deoxy-glucosaminyl))-PEG3-amide was added directly to the sample. Different concentrations of 2-N-butanoyl-D-glucosamide, or Bis-(2-(D-2-deoxy-glucosaminyl))-PEG3-amide in an immunoassay were evaluated for inhibition of Strep A false positive signals.

Assay [4] has the same test system. Description: Strep A lateral flow immunoassay (Veritor Strep A), false positive signal from saliva samples. It counts as binding. The settings on record: saliva from asymptomatic patients; FIGS. 1-4. The method, then:
Saliva samples were collected from four asymptomatic patients and tested with an immunoassay test strip for specificity. Previous studies have reported that samples obtained from the mouth tissues, saliva, cheek and tongue of healthy control patients show high false positive rates for Strep A when assayed via a lateral flow immunoassay. See US20130196337A1.
N-propionyl-D-glucosamine was tested for its ability to inhibit or block the binding of the anti-Strep A polyclonal antibodies in the Strep A immunoassay. Saliva samples from four asymptomatic patients were obtained for testing. Using an immunoassay device for detection of Strep A, the four saliva samples were each treated with the extraction reagents (such as the extraction reagents in a commercially available BD Veritor™ Strep A kit) in the presence of N-propionyl-D-glucosamine, which was dried on the conjugate pad during the spraying of liquid conjugate on the conjugate pad (labeling zone). Different concentrations of N-propionyl-D-glucosamine in an immunoassay were evaluated for inhibition of Strep A false positive signals.

The test system is the same in assay [5]. Description: Strep A detection assay, agent added to extraction solution (GAS 1+2) without mucin. It counts as binding. As to conditions: no mucin, FIG. 11.
Setting [6] is: agent mixed with porcine mucin sample, FIG. 10.
Where [7] appears, read: high concentration in sample pad or conjugate pad dipping solution, FIG. 8.
Setting [8] is: lower concentrations (zero to 12.5 mM tested) in conjugate pad dipping solution, FIG. 9.
Setting [9] is: agent added directly to the sample, Test Standard 1, FIGS. 5-6.

As to `CC(=O)N[C@H]1C(O)O[C@H](CO)[C@@H](O)[C@@H]1O` (stereo partly drawn) [N-acetyl-D-glucosamine], in assay [1], the assay sensitivity entry is on record as “significant reduction” and the “assay specificity (interference by salivary proteins)” value is given as “can improve assay specificity”.
Turning to m-PEG6-glucosamine, the mucin cross-reaction entry in assay [2] (setting [6]) is on record as “effective in eliminating”. For the same molecule, in assay [3], the “sensitivity of the Strep A assay” value is recorded as “without significant impact”.
For `CCC(=O)N[C@H]1C(O)O[C@H](CO)[C@@H](O)[C@@H]1O` (stereo partly drawn) [N-propionyl-D-glucosamine], the “false positive signals from saliva specimens” value in assay [4] is on record as “efficiently suppressed”. Besides, the “overall sensitivity of the Veritor Strep A assay” value (from here on “overall sensitivity”) in assay [3] (FIG. 1 and FIG. 3) is given as “did not reduce”.
As to m-PEG4-glucosamine, the mucin cross-reaction result in assay [2] (setting [6]) is “effective in eliminating”. Further, the “sensitivity of the Strep A assay” value in assay [3] is “without significant impact”.
As to “Bis-(2-(D-2-deoxy-glucosaminyl))-PEG3-amide”, the “mucin induced false positive signal” value in assay [2] (added in sample, two lots of Strep A devices that previously showed mucin cross-reaction, FIG. 7) is listed as “significantly reducing”. Moreover, the false positive signal entry in assay [2] (added to conjugate pad dipping solution and/or sample pad dipping solution, FIG. 8) is listed as “significantly reduced”. The “false positive signals from porcine mucin samples” value in assay [2] is given as “efficiently suppressed”. Also, the “false positive signal caused by mucin” value in assay [2] (setting [7]) is “effectively eliminate”. Moreover, the mucin cross-reaction result in assay [2] (setting [8]) was “effectively eliminate”. Moreover, the true sensitivity entry in assay [3] (added in sample, two lots of Strep A devices, FIG. 7) is given as “slightly inhibited”; in assay [3] (setting [8]), “without much impact”. Moreover, the “overall sensitivity” value in assay [3] (setting [9]) is recorded as “did not significantly reduce”. Also, the true signal entry in assay [3] (setting [7]) is on record as “inhibit”.
Consider `CCCC(=O)N[C@H]1C(O)O[C@H](CO)[C@@H](O)[C@@H]1O` (stereo partly drawn) [2-N-butanoyl-D-glucosamide], for which the “false positive signals from porcine mucin samples” value in assay [2] is “efficiently suppressed”. Also, the “overall sensitivity” value in assay [3] (setting [9]) is “did not significantly reduce”.
Consider m-PEG5000-glucosamine, for which, in assay [5], the “false positive signal when mucin is not present” value is on record as “no any false positive signal was observed”. Moreover, in assay [2] (agent added to sample, mucin present, FIG. 11), the “false positive signal caused by mucin” value was “did not reduce the false positive signal caused by mucin, but instead increases the false positive signal; also recorded: does not reduce the false positive signal caused by mucin, but instead increases the false positive signal”.
For the molecule m-PEG10-glucosamine, the mucin cross-reaction result in assay [2] (setting [6]) is “effective in eliminating”. In addition, in assay [3], the “sensitivity of the Strep A assay” value is on record as “without significant impact”.
